Test results as given in patent US20250320246A1, “3-AZASTEROID COMPOUNDS FOR THE TREATMENT OF DISEASES RELATED TO MITROCHONDRIAL FUNCTION” (NZP UK LIMITED, priority 2022, published 2025).
pEC50: −log10 of the molar value.

What was measured:
[1] = tested on: sporadic PD patient fibroblasts; assay: Mitochondrial membrane potential (MMP, TMRM) in sporadic PD patient fibroblasts; type: cell-based, human; conditions: Homo sapiens, Fibroblast, 24 h, 3 sporadic PD patient fibroblasts; for pEC50: 8-point range 0.06 nM-300 nM; for Emax: max response with highest dose of compound (300 nM), read-out: MMP % of vehicle, top %; for activity at 60 pM: max response with lowest dose of compound (0.06 nM), read-out: MMP % of vehicle, bottom %
Experimental: (§1) Primary fibroblast cells were cultured continuously in Glucose based medium (high glucose (4500 mg/L) Dulbecco's Modified Eagle's medium (DMEM; Sigma-Aldrich) supplemented with 10% fetal bovine serum (Sigma-Aldrich), 100 IU/mL penicillin, 100 μg/mL streptomycin (Lonza), 1 mM sodium pyruvate (Sigma-Aldrich) and 50 μg/mL uridine (Sigma-Aldrich)). Unless otherwise stated, 24 hours prior to analysis, the Glucose based medium was exchanged for Galactose based medium (glucose-free DMEM (Gibco) with the same supplementation and in addition, 5 mM galactose (Sigma-Aldrich)). All cells were assessed between passage 6-10.
Fibroblasts were cultured and plated into a greiner black 384 μClear® plate at a concentration of 1000 cells per well in 50 μl of media volume. The plates are left overnight in an incubator to allow the fibroblasts to adhere to the plate surface. The following morning the Glucose based medium is replaced with 25 μl of Galactose based medium. The plates were then dosed with the compounds using an ECHO® 550 liquid handling system. The wells were dosed to provide an 8-point concentration range of 0.06 nM-300 nM of compound. After dosing the wells are topped up with a further 25 μl of Galactose based medium and then left in an incubator for 24 hours. After 24 hours, the medium is removed from the wells and replaced with 25 μl phenol free Minimal essential medium supplemented with 10% FBS, 1% Penicillin-streptomycin, 1% sodium pyruvate, 0.1% uridine, 1% non-essential amino acids and 1% MEM vitamins with 80 nM TMRM (Sigma) and 10 μM Hoechst Stain (Sigma). The plate is returned to the incubator for another hour after which the stain medium is removed and replaced with 25 μl Phenol free MEM. The plate is then imaged using an IN Cell high content microscope (GE Healthcare) with fields of view per well in 2 channels, Cy3 excitation 542 nm, emission 604-64 nm; and the DAPI excitation 350 nm, emission 450-55 nm at 37° C. with CO2. After imaging the plate is disposed of and the images are Data mined using the INCell developer Toolkit (GE Healthcare).
After the assays had been repeated in triplicate per line and compound the data was then inputted into Graph pad Prism 7 software suite where a dose response curve is generated using the default “[Agonist] vs response(three parameters)” equation. […]

[2] = tested on: sporadic PD patient fibroblasts; assay: Cellular ATP levels in sporadic PD patient fibroblasts, full ATP assay; type: cell-based, human; conditions: Homo sapiens, Fibroblast, 24 h, 3 sporadic PD patient fibroblasts; for pEC50: 8-point range 0.06 nM-300 nM; for Emax at 0.3 µM: max response with highest dose of compound (300 nM), read-out: ATP % of vehicle, top %; for activity at 60 pM: max response with lowest dose of compound (0.06 nM), read-out: ATP % of vehicle, bottom %
Experimental: as §1
The ATP protocol is generally as described in Mortiboys et al 2008. Briefly, fibroblasts were cultured as and plated into white 384 well plates at a concentration of 5000 cells per well in 50 μl of media volume. The plates are left overnight in an incubator to allow the fibroblasts to adhere to the plate surface. The following morning the Glucose based medium is replaced with 25 μl of Galactose based medium. The plates were then spiked with the compounds using a ECHO 550 liquid handling system. The wells were dosed to provide an 8-point concentration range of 0.06 nM-300 nM of compound. After dosing the wells are topped up with a further 25 μl of Galactose based medium and then left in an incubator for 24 hours. Following this incubation, the medium is removed from the plate and the wells are washed twice with sterile PBS. The wells are filled with 25 μl of Sterile PBS followed by 12.5 μl of Lysis solution from the ATPlite™ Luminescence ATP detection assay system (Perkin Elmer), including 16 cell free wells to use as blank controls. The plate is then placed on a rotary shaker for 5 mins at 700 rpm. Following the shaking 12.5 μl of ATP substrate solution (Perkin Elmer) is added to each well and a further 5 min of shaking. The plate is then placed in darkness for 10 minutes prior to reading. Using a PHERAStar® plate reader, luminescence intensity is recorded. Following the ATP assay the plates are immediately assayed for DNA content in a CyQUANT® assay.
Immediately following The ATP assay DNA content is assessed with the CyQUANT® NF Cell Proliferation Assay Kit (ThermoFisher). CyQUANT® buffer is prepared immediately before the assay and is comprised of 1 μl CyQUANT® dye per ml×1 HBSS solution. 12.5 μl of CyQUANT® buffer is added to each well. Plate left in incubator for 1 hour then read on a PHERAStar© Plate reader with excitation at 497 nm and emission at 520 nm.
ATP Quantification for each well is determined using the following formula: […]
After the assays had been repeated in triplicate per line and compound the data was then inputted into Graph pad Prism 7 software suite where a dose response curve is generated using the default “[Agonist] vs response(three parameters)” equation.
From this EC50 values, lowest response and maximal response were taken and used to calculate the Geometric mean between the 5 different lines assessed.

Compound | pEC50 [1] | Emax [1] | activity at 60 pM [1] | pEC50 [2] | Emax at 0.3 µM [2] | activity at 60 pM [2]
C[C@H](CCCC(=O)O)[C@H]1CC[C@H]2[C@@H]3[C@@H](O)C[C@@H]4CN(C(=O)CO)CC[C@]4(C)[C@H]3CC[C@]12C [Compound 40b, N-Glycolyl-3-aza-7β-hydroxy-25-homo-5β-cholan-25-oic acid] | 7.58 | 131% | 95.3% | 7.71 | 130% | 101%
CC(C)[C@H](N)C(=O)N1CC[C@@]2(C)[C@H](C[C@H](O)[C@@H]3[C@@H]2CC[C@]2(C)[C@@H]([C@H](C)CCCC(=O)O)CC[C@@H]32)C1 [Compound 41b, N-[(2S)-2-Amino-3-methylbutanoyl]-3-aza-7β-hydroxy-25-homo-5β-cholan-25-oic acid hydrotrifluoroacetate] |  |  | 84.6% |  |  | 78.9%
CC[C@H](C)[C@H](N)C(=O)N1CC[C@@]2(C)[C@H](C[C@H](O)[C@@H]3[C@@H]2CC[C@]2(C)[C@@H]([C@H](C)CCC(=O)O)CC[C@@H]32)C1 [Compound 42a, N-[(2S,3S)-2-Amino-3-methylpentanoyl]-3-aza-7β-hydroxy-5β-cholan-24-oic acid hydrotrifluoroacetate] | 6.89 | 69.2% | 71.3% | 6.87 | 64.5% | 89.6%
CC[C@H](C)[C@H](N)C(=O)N1CC[C@@]2(C)[C@H](C[C@H](O)[C@@H]3[C@@H]2CC[C@]2(C)[C@@H]([C@H](C)CCCC(=O)O)CC[C@@H]32)C1 [Compound 42b, N-[(2S,3S)-2-Amino-3-methylpentanoyl]-3-aza-7β-hydroxy-25-homo-5β-cholan-25-oic acid hydrotrifluoroacetate] | 8.29 | 96.6% | 92.2% | 7.60 | 98.5% | 91.3%
CC(C)C[C@H](N)C(=O)N1CC[C@@]2(C)[C@H](C[C@H](O)[C@@H]3[C@@H]2CC[C@]2(C)[C@@H]([C@H](C)CCC(=O)O)CC[C@@H]32)C1 [Compound 43a, N-[(2S)-2-Amino-4-methylpentanoyl]-3-aza-7β-hydroxy-5β-cholan-24-oic acid hydrotrifluoroacetate] | 9.70 | 100% | 84.1% | 8.05 | 86% | 90.2%
CC(C)C[C@H](N)C(=O)N1CC[C@@]2(C)[C@H](C[C@H](O)[C@@H]3[C@@H]2CC[C@]2(C)[C@@H]([C@H](C)CCCC(=O)O)CC[C@@H]32)C1 [Compound 43b, N-[(2S)-2-Amino-4-methylpentanoyl]-3-aza-7β-hydroxy-25-homo-5β-cholan-25-oic acid hydrotrifluoroacetate] | 8.96 | 103% | 86.9% |  | 80.6% | 
C[C@H](CCC(=O)O)[C@H]1CC[C@H]2[C@@H]3[C@@H](O)C[C@@H]4CN(C(=O)[C@@H](N)Cc5c[nH]c6ccccc56)CC[C@]4(C)[C@H]3CC[C@]12C [Compound 44a, N-[(2S)-2-Amino-3-(1H-indol-3-yl)propanoyl]-3-aza-7β-hydroxy-5β-cholan-24-oic acid hydrotrifluoroacetate] | 10.05 | 102% | 73.5% | 9.64 | 122% | 65.1%
C[C@H](CCCC(=O)O)[C@H]1CC[C@H]2[C@@H]3[C@@H](O)C[C@@H]4CN(C(=O)[C@@H](N)Cc5c[nH]c6ccccc56)CC[C@]4(C)[C@H]3CC[C@]12C [Compound 44b, N-[(2S)-2-Amino-3-(1H-indol-3-yl)propanoyl]-3-aza-7β-hydroxy-25-homo-5β-cholan-25-oic acid hydrotrifluoroacetate] | 9.96 | 98.8% | 77.8% |  | 98.4% | 
C[C@H](CCC(=O)O)[C@H]1CC[C@H]2[C@@H]3[C@@H](O)C[C@@H]4CN(C(=O)[C@@H](N)Cc5ccc(O)cc5)CC[C@]4(C)[C@H]3CC[C@]12C [Compound 45a, N-[(2S)-2-Amino-3-(4-hydroxyphenyl)propanoyl]-3-aza-7β-hydroxy-5β-cholan-24-oic acid hydrotrifluoroacetate] | 9.74 | 95.1% | 82.3% | 9.60 | 97.2% | 83.8%
